# Results: patent US8791132B2, “Compounds and methods for treatment of hypertension” (Medivation Technologies, Inc., priority 2011, dated 2014)
# Experiments:
# [1] = molecular target: T1, rat adrenergic α1B receptor (Rattus norvegicus, UniProt P15823); assay: Radioligand binding, adrenergic α1B ([3H]Prazosin); details: for Percentage inhibition of ligand binding, Adrenergic α1B: 0.1 µM
# T1 construct: rat adrenergic α1B receptor obtained from Wistar Rat liver; from tissue; host or cells: Wistar rat liver
# T1 sequence (P15823 1-515): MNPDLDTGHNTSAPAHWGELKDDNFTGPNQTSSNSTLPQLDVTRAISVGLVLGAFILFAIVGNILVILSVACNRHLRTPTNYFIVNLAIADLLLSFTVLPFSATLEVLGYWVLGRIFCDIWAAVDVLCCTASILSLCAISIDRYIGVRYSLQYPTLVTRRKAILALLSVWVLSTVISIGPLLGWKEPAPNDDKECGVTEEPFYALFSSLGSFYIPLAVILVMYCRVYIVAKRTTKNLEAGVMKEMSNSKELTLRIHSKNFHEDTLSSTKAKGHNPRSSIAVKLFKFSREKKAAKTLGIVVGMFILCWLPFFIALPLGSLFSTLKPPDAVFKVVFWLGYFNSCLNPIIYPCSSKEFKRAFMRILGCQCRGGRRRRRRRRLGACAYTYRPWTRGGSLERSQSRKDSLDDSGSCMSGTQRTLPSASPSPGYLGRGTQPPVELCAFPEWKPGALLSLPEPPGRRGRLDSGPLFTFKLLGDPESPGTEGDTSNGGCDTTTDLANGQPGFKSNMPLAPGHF
# How it was run: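 Filter binding with Wistar rat liver α1B preparation: test compound plus 0.25 nM [3H]prazosin, 1 h at 25° C in modified Tris-HCl buffer pH 7.4.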
# [2] = molecular target: T2, human recombinant adrenergic α2B receptor (Homo sapiens, UniProt P18089); assay: Radioligand binding, adrenergic α2B ([3H]Rauwolscine); details: for inhibition at 0.03 µM / Percentage inhibition of ligand binding, Adrenergic α2B: 0.03 μM compound; for Percentage inhibition of ligand binding, Adrenergic α2B: 0.03 µM
# T2 construct: expressed in transfected cells; host or cells: CHO-K1
# T2 sequence (P18089 1-450): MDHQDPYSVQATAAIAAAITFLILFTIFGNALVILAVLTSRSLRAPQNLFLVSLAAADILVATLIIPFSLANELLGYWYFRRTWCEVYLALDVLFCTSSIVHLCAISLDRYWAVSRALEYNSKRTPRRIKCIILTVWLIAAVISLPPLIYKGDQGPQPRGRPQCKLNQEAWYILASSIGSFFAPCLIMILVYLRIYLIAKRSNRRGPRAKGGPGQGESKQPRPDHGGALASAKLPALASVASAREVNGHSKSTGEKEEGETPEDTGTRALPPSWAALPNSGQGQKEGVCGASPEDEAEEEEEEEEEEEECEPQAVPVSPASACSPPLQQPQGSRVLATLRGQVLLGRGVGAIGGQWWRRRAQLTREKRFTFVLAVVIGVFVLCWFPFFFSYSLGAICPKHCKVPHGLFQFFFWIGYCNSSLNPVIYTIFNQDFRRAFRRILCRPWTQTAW
# How it was run: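 Values are percent inhibition of specific radioligand binding. The receptor, expressed in CHO-K1 cells, was exposed to 2.5 nM [3H]Rauwolscine at 25° C for 60 min, with 10 μM Prazosin marking non-specific binding.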
# [3] = molecular target: T3, human recombinant adrenergic α2A receptor (Homo sapiens, UniProt P08913); assay: Radioligand binding, adrenergic α2A ([3H]MK-912); details: 0.1 μM compound; for Percentage inhibition of ligand binding, Adrenergic α2A: 0.1 µM; for inhibition at 0.1 µM: read-out: Percentage inhibition of ligand binding, Adrenergic α2A
# T3 construct: expressed in transfected cells; host or cells: insect Sf9 cells
# T3 sequence (P08913 1-465): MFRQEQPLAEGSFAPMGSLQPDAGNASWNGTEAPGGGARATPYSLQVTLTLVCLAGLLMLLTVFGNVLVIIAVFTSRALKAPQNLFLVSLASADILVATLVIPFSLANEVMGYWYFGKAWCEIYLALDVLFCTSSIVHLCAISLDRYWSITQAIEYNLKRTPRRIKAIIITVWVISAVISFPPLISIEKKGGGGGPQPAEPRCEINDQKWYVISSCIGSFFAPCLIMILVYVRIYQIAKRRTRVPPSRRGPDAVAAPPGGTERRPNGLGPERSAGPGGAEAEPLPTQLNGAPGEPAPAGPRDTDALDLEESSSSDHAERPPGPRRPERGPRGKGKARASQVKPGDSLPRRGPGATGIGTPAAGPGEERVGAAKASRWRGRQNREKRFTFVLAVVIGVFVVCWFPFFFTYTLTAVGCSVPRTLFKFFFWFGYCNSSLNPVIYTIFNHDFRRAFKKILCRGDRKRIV
# How it was run: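 Receptor expressed in insect Sf9 cells, assayed in 50 mM Tris-HCl pH 7.4 with 12.5 mM MgCl2 and 2 mM EDTA. Compounds incubated with 1 nM [3H]MK-912 for 60 min at 25 °C; nonspecific binding defined with 10 μM WB-4101. Filter-bound radioactivity counted; values are percent inhibition of specific binding.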
# [4] = read-out: Percentage inhibition of ligand binding, Adrenergic α2B
SMILES,"Percentage inhibition of ligand binding, Adrenergic α1B ([1]; 0.1 μM compound) [%]","inhibition at 0.03 µM [2, 4] [%]","Percentage inhibition of ligand binding, Adrenergic α2A [3] [%]","Percentage inhibition of ligand binding, Adrenergic α2B [2] [%]",inhibition at 0.1 µM [3] [%],"inhibition at 0.03 µM ([1]; 0.03 μM compound, read-out: Percentage inhibition of ligand binding, Adrenergic α1B) [%]","inhibition at 0.1 µM ([1]; 0.1 μM compound, read-out: Percentage inhibition of ligand binding, Adrenergic α1B) [%]","inhibition at 0.1 µM ([2]; 0.1 μM compound, read-out: Percentage inhibition of ligand binding, Adrenergic α2B) [%]",Ki ([2]; read-out: Ki α2B) [nM]
"Cc1ccc2c(c1)c1c(n2CC(C)(c2cnccn2)N(C)C)CCN2CCCC12 (single isomer, unassigned) [II-6a, dimethyl-[1-methyl-2-(9-methyl-1,2,3,4,5,10c-hexahydro-3a,6-diaza-cyclopenta[c]fluoren-6-yl)-1-pyrazin-2-yl-ethyl]-amine]",66,85,45,–,–,–,–,–,–
"Cc1ccc2c(c1)c1c(n2CC(C)(c2cnccn2)N(C)C)CCN2CCCC12 (single isomer, unassigned) [II-6b, dimethyl-[1-methyl-2-(9-methyl-1,2,3,4,5,10c-hexahydro-3a,6-diaza-cyclopenta[c]fluoren-6-yl)-1-pyrazin-2-yl-ethyl]-amine]",91,–,81,102,–,–,–,–,–
"Cc1ccc2c(c1)c1c(n2CC(N)c2ccc(F)cc2)CCN(C)C1 (single isomer, unassigned) [II-11a, 2-(2,8-dimethyl-3,4-dihydro-1H-pyrido[4,3-b]indol-5(2H)-yl)-1-(4-fluorophenyl)ethanamine]",9,–,22,53,–,–,–,–,–
"Cc1ccc2c(c1)c1c(n2CC(N)c2ccc(F)cc2)CCN(C)C1 (single isomer, unassigned) [II-11b, 2-(2,8-dimethyl-3,4-dihydro-1H-pyrido[4,3-b]indol-5(2H)-yl)-1-(4-fluorophenyl)ethanamine]",76,–,43,89,–,–,–,–,–
"CNC(Cn1c2c(c3cc(C)ccc31)CN(C)CC2)c1ccc(F)cc1 (single isomer, unassigned) [II-12a, 2-(2,8-dimethyl-3,4-dihydro-1H-pyrido[4,3-b]indol-5(2H)-yl)-1-(4-fluorophenyl)-N-methyl ethanamine]",26,–,25,89,–,–,–,–,–
"CNC(Cn1c2c(c3cc(C)ccc31)CN(C)CC2)c1ccc(F)cc1 (single isomer, unassigned) [II-12b, 2-(2,8-dimethyl-3,4-dihydro-1H-pyrido[4,3-b]indol-5(2H)-yl)-1-(4-fluorophenyl)-N-methyl ethanamine]",11,–,15,65,–,–,–,–,–
"Cc1ccc2c(c1)c1c(n2CC(c2ccc(F)cc2)N(C)C)CCN(C)C1 (single isomer, unassigned) [II-14a, 2-(2,8-dimethyl-3,4-dihydro-1H-pyrido[4,3-b]indol-5(2H)-yl)-1-(4-fluorophenyl)-N,N-dimethylethanamine]",30,–,–,88,34,–,–,–,–
"Cc1ccc2c(c1)c1c(n2CC(c2ccc(F)cc2)N(C)C)CCN(C)C1 (single isomer, unassigned) [II-14b, 2-(2,8-dimethyl-3,4-dihydro-1H-pyrido[4,3-b]indol-5(2H)-yl)-1-(4-fluorophenyl)-N,N-dimethylethanamine]",8,–,17,33,–,–,–,–,–
"CC(=O)OC(C)(Cn1c2c(c3cc(C)ccc31)CN(C)CC2)c1cccnc1 (single isomer, unassigned) [II-15a, acetic acid 2-(2,8-dimethyl-1,2,3,4-tetrahydro-pyrido[4,3-b]indol-5-yl)-1-methyl-1-pyridin-3-yl-ethyl ester]",61,47,7,–,–,–,–,–,–
"CC(=O)OC(C)(Cn1c2c(c3cc(C)ccc31)CN(C)CC2)c1cccnc1 (single isomer, unassigned) [II-15b, acetic acid 2-(2,8-dimethyl-1,2,3,4-tetrahydro-pyrido[4,3-b]indol-5-yl)-1-methyl-1-pyridin-3-yl-ethyl ester]",5,–,18,40,–,–,–,–,–
"Cc1ccc2c(c1)c1c(n2CC(C)(OC(=O)C(C)(C)C)c2cccnc2)CCN(C)C1 (single isomer, unassigned) [II-16b, 2,2-dimethyl-propionic acid 2-(2,8-dimethyl-1,2,3,4-tetrahydro-pyrido[4,3-b]indol-5-yl)-1-methyl-1-pyridin-3-yl-ethyl ester]",46,65,–,73,32,16,32,88,5.58
"Cc1ccc2c(c1)c1c(n2CC(O)c2ccccc2F)CN(C)CC1 (single isomer, unassigned) [II-49a, 2-(2,6-dimethyl-3,4-dihydro-1H-pyrido[3,4-b]indol-9(2H)-yl)-1-(2-fluorophenyl)ethanol]",47,43,–,–,34,–,–,–,–
"Cc1ccc2c(c1)c1c(n2CC(O)c2ccccc2F)CN(C)CC1 (single isomer, unassigned) [II-49b, 2-(2,6-dimethyl-3,4-dihydro-1H-pyrido[3,4-b]indol-9(2H)-yl)-1-(2-fluorophenyl)ethanol]",69,–,18,50,–,–,–,–,–
"OCCN1CCc2c(c3cc(Cl)ccc3n2CC(O)c2cccnc2)C1 (single isomer, unassigned) [II-94b]",7,–,−5,24,–,–,–,–,–
"Cc1ccc2c(c1)c1c(n2C(C)C(O)c2ccccc2)CCN(C)C1 (single isomer, unassigned) [II-95a, 2-(2,8-dimethyl-1,2,3,4-tetrahydro-pyrido[4,3-b]indol-5-yl)1-phenyl-propan-1-ol]",32,–,16,53,–,–,–,–,–
"Cc1ccc2c(c1)c1c(n2C(C)C(O)c2ccccc2)CCN(C)C1 (single isomer, unassigned) [II-95b, 2-(2,8-dimethyl-1,2,3,4-tetrahydro-pyrido[4,3-b]indol-5-yl)1-phenyl-propan-1-ol]",−1,–,−1,12,–,–,–,–,–
"Cc1cnc2c(c1)c1c(n2CC(C)(O)c2cccnc2)CCN(C)C1 (single isomer, unassigned) [II-99a]",12,–,–,49,24,–,–,–,–
